Measurements from article PMC4522710, “A putative ATPase mediates RNA transcription and capping in a dsRNA virus” (eLife, 2015).

Biological target: T1, CPV turret protein (TP) (Bombyx mori cypovirus 1, UniProt Q914N6)
T1 construct: native full-length protein in intact virions purified from polyhedra; GTase, bridge, MT-1 and MT-2 domains; pentameric turret
Test: cryoEM structure of virion complex
Type: binding
Settings: 10 mM MgCl2, pH 8.0, 31 °C

SMILES | cryoEM structure of virion complex (2 mM GTP, GTase site (all four structures), also putative ATPase site with SAM without ATP (3JB2)) | cryoEM structure of virion complex (1 mM SAM, MT-2 site (SAM alone, 3JB1), MT-1 and MT-2 sites with ATP and/or GTP present (3JAY, 3JB2, 3JB3))
Nc1nc2c(ncn2[C@@H]2O[C@H](COP(=O)(O)OP(=O)(O)OP(=O)(O)O)[C@@H](O)[C@H]2O)c(=O)[nH]1 [GTP] | In G-CPV, one GTP binds to the GTase site of GTase domain. | 
C[S+](CC[C@H](N)C(=O)O)C[C@H]1O[C@@H](n2cnc3c(N)ncnc32)[C@H](O)[C@@H]1O (some centres unmarked) [SAM] |  | In S-CPV, one SAM binds to the MT-2 domain of each TP.
